For two compounds, IC50, CC50 and MCC results are on record in US5369098A, “Hydroxymethyl cyclobutyl purines” (E. R. Squibb & Sons, Inc., priority 1989, dated 1994).

Holding throughout (type): cell-based
The subject of data set [1] is HSV-1 (herpes simplex virus type 1, strain Schooler). The data set is described as follows: HSV-1 antiviral assay (plaque reduction in WI-38 cell monolayers). The following applies: Human alphaherpesvirus 1, 96 h; WI-38 cells; plaque reduction of at least 50%; 4 days at 37° C.; read-out: ID50 for HSV-1. How it is done: (§1) Assays were performed in cell culture systems to determine the concentrations of compounds that are effective in preventing several kinds of viral infections. HSV-1 (herpes simplex virus type 1, strain Schooler), HSV-2 (herpes simplex virus type 2, strain 186), VZV (varicella zoster virus, strain ELLEN), MuLV (murine leukemia virus, strain CAS), HIV (human immunodeficiency virus, strain HTLV-IIIB). Cell Culture Assays: HSV-1, HSV-2, and VZV antiviral assays: Virus was adsorbed to WI-38 cell culture monolayers in 6 well culture plates (Costar, Cambridge, Mass.) for 1 hour prior to addition of maintenance medium containing duplicate dilutions of the test compound. Inhibition of plaque development was evaluated on fixed and stained monolayers after 4 days incubation at 37° C. for HSV-1 and HSV-2 and after 6-7 days incubation at 37° C. for VZV. ID50 values were determined from the drug concentration which conferred at least a 50% plaque reduction compared to virus controls.

For data set [2], the system named is VZV (varicella zoster virus, strain ELLEN). The data set is described as follows: VZV antiviral assay (plaque reduction in WI-38 cell monolayers). The following applies: Human alphaherpesvirus 3; WI-38 cells; plaque reduction of at least 50%; 6-7 days at 37° C.; read-out: ID50 for VZV. As to the method:
as §1

A short description of data set [3]: Reduction of viability of uninfected CEM cells (XTT-PMS). The following applies: human, footnotes *** and **** to HIV, 7 days, read-out: Minimum cytotoxic drug concentration that reduces cell viability by 50%. How it is done:
HIV antiviral assay: Suspensions of CEM cells (P. L. Nara, et. al., Nature 332, 469(1988)) were infected at a multiplicity of infection of 0.12 TCID50 /cell with HIV (strain HTLV-III B). After adsorption for 1-2 hours at 37° C., infected cells were diluted in growth medium (RPMI 1640 containing the antibiotics penicillin plus streptomycin and 10% fetal calf serum) to give a final cell concentration of 1×10^4 viable cells/culture well in the presence of serial dilutions of the test compound, starting at 100 μg/ml. Triplicate samples at each drug concentration were used. Cultures of uninfected CEM cells were similarly prepared and incubated with serial dilutions of test compound in duplicate. All assays were performed in 96 well disposable cell culture plates. Untreated (infected and uninfected) cells were included as controls. […] Following incubation, viable cell numbers were counted in each well using a colorimetric assay following incubation of cells with XTT-PMS solution (XTT tetrazolium reagent plus phenazine methosulfate, PMS). Percent reduction of viral cytopathic effect (CPE) in drug treated compared to untreated virus infected cells, and percent reduction of cell viability in drug treated uninfected cells compared to untreated controls were calculated and plotted versus the drug concentrations tested. […]
Background: Tetrazolium assays rely on reduction of a dye to a coloured formazan, in cell work by metabolically active cells.

Data set [4] relates to HSV-2 (herpes simplex virus type 2, strain 186). The experiment in a line: HSV-2 antiviral assay (plaque reduction in WI-38 cell monolayers). The following applies: Human alphaherpesvirus 2, 96 h; WI-38 cells; plaque reduction of at least 50%; 4 days at 37° C.; read-out: ID50 for HSV-2. As to the method:
as §1

Data set [5] concerns HIV (human immunodeficiency virus, strain HTLV-IIIB). The experiment in a line: HIV antiviral assay (reduction of viral cytopathic effect in CEM cells, XTT-PMS). The following applies: Human immunodeficiency virus 1, IIIB, CCRF-CEM, 168 h, minimum drug concentration that inhibits CPE by 50%, 7 days at 37° C., read-out: ID50 for HIV. As to the method: Assays were performed in cell culture systems to determine the concentrations of compounds that are effective in preventing several kinds of viral infections. HSV-1 (herpes simplex virus type 1, strain Schooler), HSV-2 (herpes simplex virus type 2, strain 186), VZV (varicella zoster virus, strain ELLEN), MuLV (murine leukemia virus, strain CAS), HIV (human immunodeficiency virus, strain HTLV-IIIB). Cell Culture Assays: HIV antiviral assay: Suspensions of CEM cells (P. L. Nara, et. al., Nature 332, 469(1988)) were infected at a multiplicity of infection of 0.12 TCID50 /cell with HIV (strain HTLV-III B). […] Following incubation, viable cell numbers were counted in each well using a colorimetric assay following incubation of cells with XTT-PMS solution (XTT tetrazolium reagent plus phenazine methosulfate, PMS). Percent reduction of viral cytopathic effect (CPE) in drug treated compared to untreated virus infected cells, and percent reduction of cell viability in drug treated uninfected cells compared to untreated controls were calculated and plotted versus the drug concentrations tested. […]
A general note: Protection from cytopathic effect is a common read-out in antiviral testing.

Data set [6] in a line: Cytotoxicity by microscopic examination of the cell sheet. The conditions noted are these: human, WI-38 cells.
For data set [7], the system named is MuLV (murine leukemia virus, strain CAS). The experiment in a line: MuLV antiviral assay (syncytial plaques, SC-1 cells / XC cells). The conditions noted are these: SC1, XC cell overlay, syncytial plaques counted, read-out: ID50 for MuLV. How it is done:
Assays were performed in cell culture systems to determine the concentrations of compounds that are effective in preventing several kinds of viral infections.
HSV-1 (herpes simplex virus type 1, strain Schooler), HSV-2 (herpes simplex virus type 2, strain 186), VZV (varicella zoster virus, strain ELLEN), MuLV (murine leukemia virus, strain CAS), HIV (human immunodeficiency virus, strain HTLV-IIIB). Cell Culture Assays:
MuLV antiviral assay: Antiviral assays using MuLV were performed with some modification, as described by Rowe et al. and Shannon et al.. SC-1 cells were planted at approximately 2×10^5 cell per well in 6 well plates. After overnight incubation at 37° C., the cell cultures were sensitized with DEAE-Dextran for one hour at 37° C., rinsed and inoculated with MuLV. Cultures were re-fed with growth medium containing different concentrations of the test compound. After three more days at 37° C., cultures were re-fed with fresh medium plus test compounds and incubated at 37° C. for an additional 3 days. Cultures were then washed to remove medium, ultraviolet light irradiated, and planted with approximately 5×10^5 XC cells per well in cell growth medium containing the appropriate concentration of the test compound. […] Finally the cultures were rinsed, stained and syncytial plaques were counted. […]

The structures appear in SMILES notation.

For the compound `Nc1ncnc2c1ncn2[C@H]1C[C@@H](CO)C1` [Example 2, (cis)-3-(6-Amino-9H-purin-9-yl)cyclobutanemethanol], the IC50 is 456 µM in data set [1]; > 114 µM in data set [2]; 456 µM in data set [4]; 301 µM in data set [5]; 23 to 46 µM in data set [7]. Further, the CC50 at 168 h in data set [3] is > 456 µM. Further, the MCC at 96 h in data set [6] (footnote * to HSV-1 and HSV-2, 4 days, read-out: Cytotoxic concentration by microscopic examination of the cell sheet (HSV-1 and HSV-2 assays)) was 456 µM. In data set [6] (footnote ** to VZV, 6-7 days, read-out: Cytotoxic concentration by microscopic examination of the cell sheet (VZV assay)), the MCC is 228 µM.
For the compound `Nc1nc2c(ncn2[C@H]2C[C@@H](CO)C2)c(=O)[nH]1` [Example 1, (cis)-2-amino-1,9-dihydro-9-[3-(hydroxymethyl)cyclobutyl]-6H-purin-6-one], the IC50 in data set [1] is 9 to 21 µM; in data set [2], 21 µM; in data set [4], 9 to 21 µM; in data set [5], 230 µM; in data set [7] it was 43 to 106 µM. Moreover, the CC50 at 168 h in data set [3] was > 425 µM.
